Assay results: US9932340B2, “Substituted indoles” (AbbVie Inc., priority 2014, dated 2018)

Biological target: SUV420H1 enzyme (Homo sapiens, UniProt Q4FZB7)
Experiment: TR-FRET SAH SUV420H1 enzyme inhibition assay
Format: biochemical
Conditions: Histone Peptide H4(8-30)me1 and SAM, overnight at room temp, TR-FRET detection of SAH, read-out: TR-FRET SAH_SUV420H1 IC50
Method in brief: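 SUV420H1 (90 nM) preincubated 30 min with compound (3-fold dilutions, 50 to 0.00075 μM), then H4(8-30)me1 peptide 5 nM and SAM 4 nM added, overnight at room temp. SAH product detected by TR-FRET with Tb anti-SAH antibody and Oregon Green-SAH in RIPA buffer, 4 h; IC50 from Hill fit, asymptotes fixed 0-100%.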

Chain of SUV420H1 enzyme (Q4FZB7 whole entry): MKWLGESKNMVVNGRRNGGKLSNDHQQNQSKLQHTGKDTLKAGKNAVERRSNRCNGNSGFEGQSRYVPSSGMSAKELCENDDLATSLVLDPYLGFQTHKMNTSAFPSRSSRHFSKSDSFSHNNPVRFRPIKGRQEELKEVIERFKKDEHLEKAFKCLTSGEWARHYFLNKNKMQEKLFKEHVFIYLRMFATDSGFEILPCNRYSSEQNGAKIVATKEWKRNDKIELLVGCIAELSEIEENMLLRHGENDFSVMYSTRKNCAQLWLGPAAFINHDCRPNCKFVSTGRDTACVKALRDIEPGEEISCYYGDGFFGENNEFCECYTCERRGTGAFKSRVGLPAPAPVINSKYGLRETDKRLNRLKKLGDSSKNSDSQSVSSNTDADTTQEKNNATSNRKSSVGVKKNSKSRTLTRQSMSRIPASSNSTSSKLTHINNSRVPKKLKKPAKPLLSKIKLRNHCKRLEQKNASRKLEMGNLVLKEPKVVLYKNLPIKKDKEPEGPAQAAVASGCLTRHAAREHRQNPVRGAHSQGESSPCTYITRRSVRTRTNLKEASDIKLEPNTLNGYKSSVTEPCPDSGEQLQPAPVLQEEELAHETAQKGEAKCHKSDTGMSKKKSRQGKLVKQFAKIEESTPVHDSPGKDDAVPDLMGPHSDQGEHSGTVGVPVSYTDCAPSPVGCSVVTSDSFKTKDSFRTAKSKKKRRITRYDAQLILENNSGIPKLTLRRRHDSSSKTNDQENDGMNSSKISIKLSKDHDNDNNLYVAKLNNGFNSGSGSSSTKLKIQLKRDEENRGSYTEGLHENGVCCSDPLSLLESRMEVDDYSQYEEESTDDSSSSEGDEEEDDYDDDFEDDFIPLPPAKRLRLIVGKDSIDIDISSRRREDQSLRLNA

SMILES | IC50
Cc1noc(C)c1C(=O)NCc1cc2cc(-c3ccc(NS(C)(=O)=O)cc3)cc(Cn3cnc4c(N)ncnc43)c2[nH]1 [Example 174, N-[(7-[(6-amino-9H-purin-9-yl)methyl]-5-{4-[(methylsulfonyl)amino]phenyl}-1H-indol-2-yl)methyl]-3,5-dimethyl-1,2-oxazole-4-carboxamide] | 101 nM
N#Cc1ccc(F)c(CNCc2cc3cc(Cl)cc(Cn4cnc5c(N)ncnc54)c3[nH]2)c1 [Example 270, 3-{[({7-[(6-amino-9H-purin-9-yl)methyl]-5-chloro-1H-indol-2-yl}methyl)amino]methyl}-4-fluorobenzonitrile] | 3750 nM
CC(C)CC(=O)NCc1cc2cc(Cl)cc(Cn3cnc4c(N)ncnc43)c2[nH]1 [Example 102, N-({7-[(6-amino-9H-purin-9-yl)methyl]-5-chloro-1H-indol-2-yl}methyl)-3-methylbutanamide] | 6360 nM
Nc1ncnc2c1ncn2Cc1cc(Cl)cc2cc(CNCc3cccc(Cl)c3)[nH]c12 [Example 209, 9-[(5-chloro-2-{[(3-chlorobenzyl)amino]methyl}-1H-indol-7-yl)methyl]-9H-purin-6-amine] | 1920 nM
Nc1ncnc2c1ncn2Cc1cc(Cl)cc2cc(CO)[nH]c12 [Example 7, {7-[(6-amino-9H-purin-9-yl)methyl]-5-chloro-1H-indol-2-yl}methanol] | 22200 nM
Nc1ncnc2c1ncn2Cc1cc(Cl)cc2cc(CNC(=O)c3ccc4[nH]ncc4c3)[nH]c12 [Example 346, N-({7-[(6-amino-9H-purin-9-yl)methyl]-5-chloro-1H-indol-2-yl}methyl)-1H-indazole-5-carboxamide] | 4660 nM
CN(C)c1ccc(CC(=O)NCc2cc3cc(Cl)cc(Cn4cnc5c(N)ncnc54)c3[nH]2)cc1 [Example 317, N-({7-[(6-amino-9H-purin-9-yl)methyl]-5-chloro-1H-indol-2-yl}methyl)-2-[4-(dimethylamino)phenyl]acetamide] | 4500 nM
NCc1cc2cc(-c3ccc4c(c3)CCO4)cc(Cn3cnc4c(N)ncnc43)c2[nH]1 [Example 57, 9-{[2-(aminomethyl)-5-(2,3-dihydro-1-benzofuran-5-yl)-1H-indol-7-yl]methyl}-9H-purin-6-amine] | 457 nM
Cc1noc(C)c1C(=O)NCc1cc2cc(-c3ccc(S(C)(=O)=O)cc3)cc(Cn3cnc4c(N)ncnc43)c2[nH]1 [Example 170, N-({7-[(6-amino-9H-purin-9-yl)methyl]-5-[4-(methylsulfonyl)phenyl]-1H-indol-2-yl}methyl)-3,5-dimethyl-1,2-oxazole-4-carboxamide] | 208 nM
N#Cc1ccc(C(=O)NCc2cc3cc(C4=CCNCC4)cc(Cn4cnc5c(N)ncnc54)c3[nH]2)c(Cl)c1 [Example 277, N-({7-[(6-amino-9H-purin-9-yl)methyl]-5-(1,2,3,6-tetrahydropyridin-4-yl)-1H-indol-2-yl}methyl)-2-chloro-4-cyanobenzamide] | 35.1 nM
NCc1cc2cc(-c3cccc(C(N)=O)c3)cc(Cn3cnc4c(N)ncnc43)c2[nH]1 [Example 40, 3-{2-(aminomethyl)-7-[(6-amino-9H-purin-9-yl)methyl]-1H-indol-5-yl}benzamide] | 425 nM
Cc1cccc(C)c1C(=O)NCc1cc2cc(Cl)cc(Cn3cnc4c(N)ncnc43)c2[nH]1 [Example 295, N-({7-[(6-amino-9H-purin-9-yl)methyl]-5-chloro-1H-indol-2-yl}methyl)-2,6-dimethylbenzamide] | 607 nM
NCc1cc2cc(C3=CCNCC3)cc(Cn3cnc4c(N)ncnc43)c2[nH]1 [Example 13, 9-{[2-(aminomethyl)-5-(1,2,3,6-tetrahydropyridin-4-yl)-1H-indol-7-yl]methyl}-9H-purin-6-amine] | 135 nM
NCc1cc2cc(-c3cccc(C(=O)N4CCOCC4)c3)cc(Cn3cnc4c(N)ncnc43)c2[nH]1 [Example 53, (3-{2-(aminomethyl)-7-[(6-amino-9H-purin-9-yl)methyl]-1H-indol-5-yl}phenyl)(morpholin-4-yl)methanone] | 590 nM
Cc1cc(C(=O)NCc2cc3cc(Cl)cc(Cn4cnc5c(N)ncnc54)c3[nH]2)c(C)nn1 [Example 234, N-({7-[(6-amino-9H-purin-9-yl)methyl]-5-chloro-1H-indol-2-yl}methyl)-3,6-dimethylpyridazine-4-carboxamide] | 60.6 nM
Cc1nc2c(cnn2C(C)C)cc1C(=O)NCc1cc2cc(Cl)cc(Cn3cnc4c(N)ncnc43)c2[nH]1 [Example 377, N-({7-[(6-amino-9H-purin-9-yl)methyl]-5-chloro-1H-indol-2-yl}methyl)-6-methyl-1-(propan-2-yl)-1H-pyrazolo[3,4-b]pyridine-5-carboxamide] | 2710 nM
Cc1ccccc1C(=O)NCc1cc2cc(Cl)cc(Cn3cnc4c(N)ncnc43)c2[nH]1 [Example 248, N-({7-[(6-amino-9H-purin-9-yl)methyl]-5-chloro-1H-indol-2-yl}methyl)-2-methylbenzamide] | 571 nM
NCc1cc2c(-c3ccccc3)ccc(Cn3cnc4c(N)ncnc43)c2[nH]1 [Example 70, 9-{[2-(aminomethyl)-4-phenyl-1H-indol-7-yl]methyl}-9H-purin-6-amine] | 1000 nM

SMILES | IC50
Cc1ccccc1-c1ccc(Cn2cnc3c(N)ncnc32)c2[nH]c(CN)cc12 [Example 77, 9-{[2-(aminomethyl)-4-(2-methylphenyl)-1H-indol-7-yl]methyl}-9H-purin-6-amine] | 2630 nM
NCc1cc2c(-c3cccnc3)ccc(Cn3cnc4c(N)ncnc43)c2[nH]1 [Example 69, 9-{[2-(aminomethyl)-4-(pyridin-3-yl)-1H-indol-7-yl]methyl}-9H-purin-6-amine] | 663 nM
NCc1cc2cc(-c3ccccc3F)cc(Cn3cnc4c(N)ncnc43)c2[nH]1 [Example 27, 9-{[2-(aminomethyl)-5-(2-fluorophenyl)-1H-indol-7-yl]methyl}-9H-purin-6-amine] | 1210 nM
Nc1ncnc2c1ncn2Cc1cc(Cl)cc2cc(CNC(=O)c3ccc4sccc4c3)[nH]c12 [Example 354, N-({7-[(6-amino-9H-purin-9-yl)methyl]-5-chloro-1H-indol-2-yl}methyl)-1-benzothiophene-5-carboxamide] | 5960 nM
Cc1nc2cc(C(=O)NCc3cc4cc(Cl)cc(Cn5cnc6c(N)ncnc65)c4[nH]3)ccc2n1C [Example 367, N-({7-[(6-amino-9H-purin-9-yl)methyl]-5-chloro-1H-indol-2-yl}methyl)-1,2-dimethyl-1H-benzimidazole-5-carboxamide] | 591 nM
Nc1ncnc2c1ncn2Cc1cc(Cl)cc2cc(CNC(=O)c3ccc4scnc4c3)[nH]c12 [Example 336, N-({7-[(6-amino-9H-purin-9-yl)methyl]-5-chloro-1H-indol-2-yl}methyl)-1,3-benzothiazole-5-carboxamide] | 431 nM
CC(C)c1noc2ncc(C(=O)NCc3cc4cc(Cl)cc(Cn5cnc6c(N)ncnc65)c4[nH]3)cc12 [Example 370, N-({7-[(6-amino-9H-purin-9-yl)methyl]-5-chloro-1H-indol-2-yl}methyl)-3-(propan-2-yl)[1,2]oxazolo[5,4-b]pyridine-5-carboxamide] | 1690 nM
CS(=O)(=O)c1cc(CNCc2cc3cc(Cl)cc(Cn4cnc5c(N)ncnc54)c3[nH]2)ccc1F [Example 263, 9-{[5-chloro-2-({[4-fluoro-3-(methylsulfonyl)benzyl]amino}methyl)-1H-indol-7-yl]methyl}-9H-purin-6-amine] | 1750 nM
CC(C)n1nnc2cc(C(=O)NCc3cc4cc(Cl)cc(Cn5cnc6c(N)ncnc65)c4[nH]3)ccc21 [Example 371, N-({7-[(6-amino-9H-purin-9-yl)methyl]-5-chloro-1H-indol-2-yl}methyl)-1-(propan-2-yl)-1H-benzotriazole-5-carboxamide] | 21500 nM
N#Cc1cccc(CNCc2cc3cc(Cl)cc(Cn4cnc5c(N)ncnc54)c3[nH]2)c1 [Example 268, 3-{[({7-[(6-amino-9H-purin-9-yl)methyl]-5-chloro-1H-indol-2-yl}methyl)amino]methyl}benzonitrile] | 4640 nM
Nc1ncnc2c1ncn2Cc1cc(Cl)cc2cc(CNC(=O)c3ccc(F)cc3)[nH]c12 [Example 223, N-({7-[(6-amino-9H-purin-9-yl)methyl]-5-chloro-1H-indol-2-yl}methyl)-4-fluorobenzamide] | 8250 nM
COc1ccc(-c2cc(Cn3cnc4c(N)ncnc43)c3[nH]c(CNC(=O)c4c(C)noc4C)cc3c2)cc1 [Example 168, N-({7-[(6-amino-9H-purin-9-yl)methyl]-5-(4-methoxyphenyl)-1H-indol-2-yl}methyl)-3,5-dimethyl-1,2-oxazole-4-carboxamide] | 333 nM
Cc1cccc(-c2cc(Cn3cnc4c(N)ncnc43)c3[nH]c(CN)cc3c2)c1 [Example 31, 9-{[2-(aminomethyl)-5-(3-methylphenyl)-1H-indol-7-yl]methyl}-9H-purin-6-amine] | 901 nM
CN(C)C(=O)CCc1c[nH]c2c(Cn3cnc4c(N)ncnc43)cccc12 [Example 3, 3-{7-[(6-amino-9H-purin-9-yl)methyl]-1H-indol-3-yl}-N,N-dimethylpropanamide] | 35000 nM
Cc1ccc(-c2ccc(Cn3cnc4c(N)ncnc43)c3[nH]c(CN)cc23)cc1 [Example 75, 9-{[2-(aminomethyl)-4-(4-methylphenyl)-1H-indol-7-yl]methyl}-9H-purin-6-amine] | 890 nM
COc1ccc(-c2cc(Cn3cnc4c(N)ncnc43)c3[nH]c(CN)cc3c2)cc1 [Example 34, 9-{[2-(aminomethyl)-5-(4-methoxyphenyl)-1H-indol-7-yl]methyl}-9H-purin-6-amine] | 723 nM
Cc1cccc(CNCc2cc3cc(Cl)cc(Cn4cnc5c(N)ncnc54)c3[nH]2)c1F [Example 245, 9-[(5-chloro-2-{[(2-fluoro-3-methylbenzyl)amino]methyl}-1H-indol-7-yl)methyl]-9H-purin-6-amine] | 2030 nM
